# Data: BindingDB's records for doi:10.1021/acs.jmedchem.0c00182 (Inception Therapeutics, 2020)
# Assay: Inhibition of eIF4A1 in human HAP1 cells assessed as reduction in cell proliferation incubated for 72 hrs by CellTiter-Glo reagent based assay
smiles,measurement,value
COc1cc2c(c(OC)n1)[C@]1(O)[C@H](O)[C@H](CN(C)C)[C@@H](c3ccccc3)[C@]1(c1ccc(C#N)cc1)O2 [Zotatifin],IC50,6.3 nM
